Results on one molecule are retold here after US20230137849A1, “USE OF A COMPOUND OF THE DIURETICS CLASS FOR TREATING CANCER” (AZELEAD, priority 2017, published 2023).

Assay [1] has as its system 4T1 cells. It counts as cell-based, mouse. Particulars: highest dose 100 μM, FIG. 8. The method, then:
The cytotoxicity tests are carried out in cell culture in 96-well plates, on the 4T1 cell line. The cells are maintained in a DMEM culture medium supplemented with 10% fetal calf serum (control condition) or placed in the presence of an MTT solution (3-(4,5-dimethylthiazol-2-yl)-2,5-diphenyl tetrazolium bromide) at 1 mg/ml in DMEM medium supplemented with 10% fetal calf serum (100 μl per well). The cells are incubated at 37° C. and 5% CO2 for 4 hours. The reaction is stopped by the addition of 100 μl of a solution containing 10% of SDS and 0.01 M of HCl. The cells are placed in an incubator at 37° C. and 5% CO2 for 2 hours. The absorbance is measured between 570 and 590 nm. The negative control is performed on a well without cells, containing 200 μl of a 1 mg/ml solution of MTT diluted in DMEM culture medium supplemented with 10% fetal calf serum. The average of the measurements obtained is compared with the control wells: (average value of the compounds treated/average value of the controls)*100=% of the average value.
The 4T1 cells are derived from tumors of the mammary gland in mice.
In order to study the cytotoxic effects of althiazide in vitro, we analyze the cell death induced by treatment with althiazide by tetrazolium salt labeling MTT (3-(4,5-dimethylthiazol-2-yl)-2,5-diphenyltetrazolium bromide) on 4T1 cells. The amount of living cells in the well is assayed by spectrometry. The results are compared with those obtained after treatment with the control solution (FIG. 8). In this test, we observe a very low mortality of cells after treatment with althiazide (80% of living cells at the highest dose 100 μM). Cells treated with dasatinib have a much higher mortality rate, at much lower doses (80% live cells at the lowest 10 nM dose and 20% live cells at 100 μM).

For assay [2], the system named is hematopoietic stem cells CD41:GFP accumulated in the AGM. The assay can be described thus: Zebrafish embryo test: HSC accumulated in the AGM (initiation of the metastatic process). It counts as in vivo. Particulars: althiazide 10 μM (FIG. 2; b187 prints 10 μl), embryos 25 hpf treated 24 h, vs DMSO. An excerpt:
A method for determining whether a molecule is capable of treating cancer in the pre-metastatic state has been described in international application WO 2011/007259. This method consists in isolating molecules capable of inhibiting the emergence of hematopoietic stem cells from the floor of the aorta without cell division, but by endothelial-to-hematopoietic transition. This emergence involves the loss of cell polarity of emerging cells, the loss of cellular junctions with these neighboring cells and the acquisition of migratory properties. This model is used because it mimics each stage of the epithelial-mesenchymal transition, the first stage of cancer metastasis. The endothelial-to-hematopoietic transition takes place in a region of the embryo called Aorta-Gonad-Mesonephros (AGM).
In order to evaluate the inhibition of the endothelial-to-hematopoietic transition, transgenic CD41:GFP (green fluorescent protein) embryos are used. HSCs express GFP under the control of the CD41 promoter, which allows them to be monitored in vivo under a fluorescence microscope. The read-out is the number of hematopoietic stem cells CD41:GFP accumulated in the AGM (mimicking the initiation of the metastatic process) and/or in the CHT of the zebrafish embryo (mimicking the progression of the metastatic process). […]

In the case of `C=CCSCC1Nc2cc(Cl)c(S(N)(=O)=O)cc2S(=O)(=O)N1` (racemic) [althiazide], the “living cells (MTT)” value in assay [1] turned out to be 80%. The “number of HSC accumulated in the AGM compared with reference embryos; local migration of HSC” value was “greater” in assay [2]; “reduction of the junction loss and the local migration of HSC” in assay [2] (listed as thiazide).
